Data from patent US12293809B2, “Workflow for generating compounds with biological activity against a specific biological target” (INSILICO MEDICINE IP LIMITED, priority 2019, dated 2025).
≈ marks a conversion by molar mass, not a printed value.

Assays:
[1] = system: CTGF expression in MRC-5 cells; test: MRC-5 fibrosis assay, TGF-β stimulated (Western blot); type: cell-based
Method: After 20 h growth in the reduced serum medium, the cells were treated with indicated doses of compounds for 30 minutes. Subsequently, the cells were stimulated with 10 ng/mL TGF-β (R&D Systems, 240-B-002) for 48 or 72 hours.

CYP1A2 = target: T1, CYP1A2 (Homo sapiens, UniProt P05177); test: Cytochrome inhibition in HLM; type: in vitro ADME
T1 construct: from tissue; host or cells: human liver microsomes (HLM)
T1 sequence (P05177 1-516): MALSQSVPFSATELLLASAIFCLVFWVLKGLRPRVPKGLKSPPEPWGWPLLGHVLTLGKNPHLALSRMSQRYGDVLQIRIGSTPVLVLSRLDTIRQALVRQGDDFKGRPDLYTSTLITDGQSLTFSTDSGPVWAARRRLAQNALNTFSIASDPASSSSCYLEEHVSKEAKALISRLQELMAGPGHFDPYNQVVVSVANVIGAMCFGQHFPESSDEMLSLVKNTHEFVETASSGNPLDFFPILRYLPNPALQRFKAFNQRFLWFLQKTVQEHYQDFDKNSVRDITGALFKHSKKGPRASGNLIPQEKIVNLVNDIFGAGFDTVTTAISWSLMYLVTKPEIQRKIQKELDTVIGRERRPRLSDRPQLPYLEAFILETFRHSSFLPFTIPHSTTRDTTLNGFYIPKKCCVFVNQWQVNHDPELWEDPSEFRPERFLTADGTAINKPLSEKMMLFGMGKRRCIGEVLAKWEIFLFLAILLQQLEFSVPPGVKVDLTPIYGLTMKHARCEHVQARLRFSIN
Method: Water used in the assay and analysis was purified by ELGA Lab purification systems. Potassium phosphate buffer (PB) in concentration of 100 mM and MgCl2 in concentration of 33 mM were used. […] Microsomes were pulled out of the −80° C. freezer to thaw on ice, labeled the date and put back to freezer immediately after using. 20 μL of the substrates solutions were added to corresponding wells. 20 μL PB were added to Blank wells. 2 μL of the test compounds and positive control working solution were added to corresponding wells. Then, HLM working solution was prepared. 158 μL of the HLM working solution was added to all wells of incubation plate. The plate was pre-warmed for about 10 min at 37° C. water bath. Then, NADPH cofactor solution was prepared. 20 μL NADPH cofactor was added to all incubation wells. The solution was mixed and incubated for 10 minutes at 37° C. water bath. At the time point, the reaction was terminated by adding 400 μL cold stop solution (200 ng/mL Tolbutamide and 200 ng/mL Labetalol in ACN). The samples were centrifuged at 4000 rpm for 20 minutes to precipitate protein. 200 μL supernatant was transferred to 100 μL HPLC water and shaken for 10 min. XL fit was used to plot the percent of vehicle control versus the test compound concentrations, and for non-linear regression analysis of the data.

[2] = Mouse PK study, PO administration; type: in vivo
[3] = system: α-actin (α-SMA) production in LX-2 cells; test: LX-2 fibrosis assay, TGF-β stimulated (Western blot); type: cell-based, human; details: 14 nM
Method: Collagen α1, α-SMA, CTGF and GAPDH were traced using Western blot analysis.
After 20 h growth in the reduced serum medium, the cells were treated with indicated doses of compounds for 30 minutes.

Kinetic solubility = type: physicochemical; details: pH=7.4
Method: (§1) Since Compound 2 contains an imidazolidine fragment typically unusual in drug discovery we experimentally assessed key properties for this molecule. […] The inhibition activity of Compounds 1 and 2 towards a small panel of key cytochrome P450 (CYP450) isoforms was also assessed in vitro (Table 2).

Thermodynamic solubility = type: physicochemical
Method: as §1

log D 7.4 = type: physicochemical; details: TFA salt
Method: as §1

pKa = type: physicochemical
Method: as §1

[4] = Microsomal stability (DLM); details: for Remaining (*NCF = 60 min) / Remaining (T = 60 min): 1 h
Method: Cold acetonitrile (ACN) including 100 ng/mL Tolbutamide and 100 ng/mL Labetalol as internal standard (IS) were used for stop solution. 10 μL compound or control working solution/well was added to all plates (T0, T5, T10, T20, T30, T60, NCF60) except matrix blank. Dispense 80 μL/well microsome solution was added to every plate by Apricot, the mixture of microsome solution and compound were incubated at 37° C. for about 10 min. After pre-warming, dispense 10 μL/well NADPH regenerating system was added to every plate by Apricot to start reaction. The solution was then incubated at 37° C. 300 (μL/well) stop solution (cold in 4° C.) was added to terminate the reaction. The sampling plates were shaken for approximately 10 min. Samples were centrifuged at 4000 rpm for 20 min under 4° C. While centrifuging, 8×new 96-well plate were loaded with 300 μL HPLC water, then 100 μL supernatant was transferred and mixed for LC/MS/MS.

[5] = PO 15 mg/kg, M04-M06 individual, c4 Mean ± SD, 15 mg/kg, mean

With Cc1ccc2c(Nc3cccc(C(F)(F)F)c3)noc2c1C#Cc1cnc2cccnn12 [Compound 1] the “effect on CTGF expression” value ([1]; all the concentrations used) was “no inhibition potency”, the IC50 (CYP1A2) was 7.36 µM and the Bioavailability ([2]; PO 15 mg/kg vs IV 10 mg/kg, calculated using AUC0-inf) was 17.8 ± — %. For the same compound, the AUC0-inf [2, 5] was 1911 ± 94.3 ng·h/mL, the AUC0-last [2, 5] was 1896 ± 93.7 ng·h/mL and the AUCExtra [2, 5] was 0.787 ± 0.278%. It also gave an AUMCExtra [2, 5] of 4.01 ± 1.60%, a Cmax [2, 5] of 276 ± 75.4 ng/mL and an MRT0-inf [2, 5] of 5.73 ± 0.999 h. For the same compound, the MRT0-last [2, 5] was 5.54 ± 1.000 h, the T1/2 [2, 5] was 3.29 ± 0.278 h and the Tmax [2, 5] was 2.33 ± 1.53 h. The Tlast ([2]; PO 15 mg/kg, M04-M06 individual, c4 Mean, 15 mg/kg, mean) was 24.0 ± — h.
For O=C(Nc1cccc(C(=O)N2CCN(c3ccnc4[nH]ccc34)C2)c1)c1cccc(C(F)(F)F)c1 [Compound 2], the “concentration of highest activity in CTGF assay (close to negative control)” value ([1]; MRC-5) was 0.041 µM, the “inhibition of α-SMA” value [3] was 15% and the kinetic solubility (Kinetic solubility) was 1.09 µg/mL (≈ 2.27 µM). The thermodynamic solubility (Thermodynamic solubility) was less than 0.59 µg/mL, the “log D 7.4” value (log D 7.4) was 4.07 and the pKa (pKa) was 6.99. For the same compound, the IC50 (CYP1A2) was 10.6 µM, the “CLint(mic)” value ([4]; DLM 0.5) was 162.6 and the “CLint(mic)” value ([4]; HLM 0.5) was 108.2. The T1/2 ([4]; dog, microsomes) was 0.142 h, the “Remaining (*NCF = 60 min)” value ([4]; dog, microsomes) was 99.9% and the “Remaining (T = 60 min)” value ([4]; dog, microsomes) was 0.6%. The T1/2 ([4]; human, microsomes) was 0.213 h, the “Remaining (*NCF = 60 min)” value ([4]; human, microsomes) was 88.7% and the “Remaining (T = 60 min)” value ([4]; human, microsomes) was 2.8%. For the same compound, the “CLint(mic)” value ([4]; rat, microsomes) was 80.6, the T1/2 ([4]; rat, microsomes) was 0.287 h and the “Remaining (*NCF = 60 min)” value ([4]; rat, microsomes) was 88.3%. For the same compound, the “Remaining (T = 60 min)” value ([4]; rat, microsomes) was 7.1%.
